Data set [1] is described as follows: Pharmacokinetics following single administration in SD rat. Also noted: species or system SD rats. The settings on record: in vivo, sc, 50 nmol/kg. Here is the method:
The compound is administrated to male SD rats (230-268 g, n=3) at a dose of 50.0 nmol/kg (s.c.) or 25.0 nmol/kg (i.v.). […] 30.0 μL of thawed plasma sample is taken. 150 μL of acetonitrile solution (containing 5 ng mL^−1 Verapamil, 50 ng·mL^−1 Glibenclamide, 200 ng·mL^−1 Tolbutamide and 200 ng·mL^−1 Diclofenac) are added to precipitate protein. The mixture is vortexed for 5 minutes, and centrifuged at 3700 rpm for 8 minutes. 70.0 μL of the supernatant is taken, into which 70.0 μL of 0.5% aqueous formic acid solution is added. The mixture is vortexed for 5 minutes. 15 μL of the mixture solution is sampled and injected into the LC-MS/MS to determine the drug concentration in plasma. 20.0 μL of thawed plasma sample is taken. 60 μL of acetonitrile solution (containing 5 ng mL^−1 Verapamil, 50 ng·mL^−1 Glibenclamide, 200 ng·mL^−1 Tolbutamide and 200 ng·mL^−1 Diclofenac) are added to precipitate protein. […] The mixture is vortexed for 10 minutes. 10.0 μL of the mixture solution is sampled and injected into the LC-MS/MS to determine the drug concentration in plasma. 30.0 μL of thawed plasma sample is taken. 150 μL of acetonitrile solution (containing 5 ng mL^−1 Verapamil, 50 ng mL^−1 Glibenclamide, 200 ng·mL^−1 Tolbutamide and 200 ng·mL^−1 Diclofenac) are added to precipitate protein. The mixture is vortexed for 5 minutes, and centrifuged at 3700 rpm for 8 minutes. 70.0 μL of the supernatant is taken, into which 70.0 μL of 0.5% aqueous formic acid solution is added. The mixture is vortexed for 5 minutes. 10.0 μL of the mixture solution is sampled and injected into the LC-MS/MS to determine the drug concentration in plasma.

Data set [2] can be described thus: Pharmacokinetics in C57 mice. The note with it: mouse, in vivo. As for the experimental part:
After subcutaneous or intravenous administration to C57 mice, plasma is collected and the drug concentration in plasma is determined to illustrate the in vivo pharmacokinetic properties of the compound according to the present invention. […] 20.0 μL of thawed plasma sample is taken. 20 μL of 50% aqueous methanol solution (containing 100 ng mL^−1 internal standard) and 60 μL of acetonitrile are added sequentially to precipitate protein. The mixture is vortexed for 5 minutes, and centrifuged at 3700 rpm for 8 minutes. 50.0 μL of the supernatant is taken, into which 50.0 μL of 0.5% aqueous formic acid solution is added. The mixture is vortexed for 5 minutes. 50 μL of the mixture solution is sampled and injected into the LC-MS/MS to determine the drug concentration in plasma.

Data set [3] in a line: Pharmacokinetics in cynomolgus monkeys. The settings on record: cynomolgus monkey, in vivo, sc, 25 nmol/kg. Here is the method:
After subcutaneous or intravenous administration to cynomolgus monkeys, plasma is collected and the drug concentration in plasma is determined to illustrate the in vivo pharmacokinetic properties of the compound according to the present invention. The compound is dissolved in 1.4% PG in 8 mM Na2HPO4 Buffer (pH 7.39), and filtered through a filter membrane (PTFE, 0.45 μm) to obtain 25 and 12.5 nmol/mL solution of the compound respectively. The obtained solutions are administered to cynomolgus monkeys (4-8 kg) at a dose of 25 nmol/kg subcutaneously (s.c.) or 12.5 nmol/kg intravenously (i.v.). […] The blood samples are centrifuged at 2200 g for 10 minutes to obtain a plasma, which is stored at −90° C. to −60° C. for further analysis and assay.
70.0 μL of thawed plasma sample is taken. 70 μL of acetonitrile (containing 1 ng/ml of the internal standard) is added to precipitate protein. The mixture is vortexed for 1 minute, and centrifuged at 14000 rpm for 10 minutes. 60.0 μL of the supernatant is taken, into which 60.0 μL of 0.5% aqueous formic acid solution is added. The mixture is vortexed for 5 minutes. 10 μL of the mixture solution is sampled and injected into the LC-MS/MS to determine the drug concentration in plasma.
Based on the drug concentration in plasma of the compounds in the cynomolgus monkeys, the pharmacokinetic parameters are calculated by applying the software Winnolin 8.2 in a non-compartmental model, and the results are shown in Table 9 and Table 10 below.

What is called MRT inf is the average time that molecules of a dose stay in the body. Broadly, the MRT last is the average time that molecules of a dose stay in the body.

For the compound `CC[C@H](C)[C@H](NC(=O)C(C)(C)NC(=O)[C@H](Cc1ccc(O)cc1)NC(=O)[C@H](CC(=O)O)NC(=O)[C@H](CO)NC(=O)[C@@H](NC(=O)C(C)(Cc1ccccc1)NC(=O)[C@@H](NC(=O)CNC(=O)[C@H](CCC(=O)O)NC(=O)C(C)(C)NC(=O)[C@@H](N)Cc1ccc(O)cc1)[C@@H](C)O)[C@@H](C)O)C(=O)NC(C)(C)C(=O)N[C@@H](CC(C)C)C(=O)N[C@@H](CC(=O)O)C(=O)N[C@@H](CCCCN)C(=O)N[C@@H](CCC(N)=O)C(=O)N[C@@H](C)C(=O)N[C@@H](CCC(N)=O)C(=O)N[C@@H](C)C(=O)N[C@@H](CCC(=O)O)C(=O)N[C@@H](Cc1ccccc1)C(=O)N[C@H](C(=O)N[C@@H](CCCCN)C(=O)N[C@@H](Cc1c[nH]c2ccccc12)C(=O)N[C@@H](CC(C)C)C(=O)N[C@@H](CC(C)C)C(=O)N[C@@H](CCCCNC(=O)COCCOCCNC(=O)COCCOCCNC(=O)COCCOCCNC(=O)CC[C@H](NC(=O)CCCCCCCCCCCCCCCCCCCCC(=O)O)C(=O)O)C(=O)NCC(=O)NCC(=O)N1CCC[C@H]1C(=O)N[C@@H](CO)C(=O)N[C@@H](CO)C(=O)NCC(=O)N[C@@H](C)C(=O)N1CCC[C@H]1C(=O)N1CCC[C@H]1C(=O)N1CCC[C@H]1C(=O)N[C@@H](CO)C(=O)N[C@@H](CCCCN)C(N)=O)C(C)C` (some centres unmarked) [P020], the MRT inf was 37.1 ± 0.636 h in data set [1], 21.8 h in data set [2] (iv), 29.4 h in data set [2] (sc) and 103 ± 13.1 h in data set [3]. In addition, the MRT last is 29.5 ± 4.68 h in data set [1], 16.8 h in data set [2] (iv), 21.8 h in data set [2] (sc) and 97.5 ± 9.67 h in data set [3].

Source of the values: patent publication US12589158B2 (priority 2022, dated 2026).
